Test results from patent publication US5190919A, “Antihemostatic Factor VII peptides” (Board of Regents, The University of Texas System, priority 1989, dated 1993).
Read-outs that look alike come from different tables or passages of the source. Ends that are not written are not given here.

What was measured:
[1] = test system: Factor VII-tissue factor complex; experiment: Rate of Factor X activation, two-stage chromogenic (amidolytic) assay with purified proteins; assay type: biochemical, human; conditions: for Factor Xa Formation (% of Control Rate): 200 μM of each synthetic peptide, amidolytic assay, purified proteins; for Dose-dependent inhibition of the rate of Factor Xa formation / Factor VII activity: result in words
Description: (§1) 3. Rate of Factor X activation: The effect of the synthetic peptides on the rate of activation of Factor X was analyzed in a purified system employing chromogenic assays. For the inhibition experiments, peptides were diluted in 20 mM Tris-HCl, 150 mM NaCl, pH 7.4 (TBS) and preincubated with 10 microliters each of Factor X (180 nM) and tissue factor (0.075%) at 37 degrees Centigrade in a total volume of 140 microliters adjusted with TBS containing 1% bovine serum albumin (BSA) and 5 mM CaCl2. After 30 minutes, Factor X activation was initiated by the addition of 10 microliters of Factor VII (2 pM). At defined timed intervals, 20 microliter aliquots were removed and added to a microtiter plate containing 80 microliters of 50 mM Tris-HCl, 225 mM NaCl and 10 mM EDTA, pH 8.2. Following sample collection, 50 microliters of 0.6 mM chromogenic substrate was added and the rate of change in the absorbance at 405 nm was monitored for 10 minutes using a Vmax Kinetic Microplate Reader (Molecular Devices, Inc., Palo Alto, Calif.). The rate of Factor Xa formation was calculated from the slope of linear regression of data plotted as a function of the initial rate of hydrolysis (OD405 /min) versus time and expressed as OD405 /min^2.
(§2) 5. Inhibition assays: The inhibition of Factor VII function was determined in the two-stage chromogenic assay described in Example I-A, 3. The peptides were initially screened at 200 μM added concentration. To determine the concentration of peptide required to inhibit the rate of Factor X activation by 50% (CI50), peptides at various concentrations or buffer (TBS-BSA) were incubated with their respective complexes. Following the addition of Factor VII, the rate of Factor Xa generation was determined and the percent of Factor X activation in the presence of different concentrations of Factor VII peptides relative to buffer controls was calculated. Analogous determinations of the CI50 values were measured in the specific coagulation assay outlined above. Factor VII activity in the presence of varying concentrations of peptide was measured by comparing the clotting times to a standard curve constructed from the log of the clot time versus the log of Factor VII concentration in the same incubation mixtures described for the peptides.
(§3) Kinetic analysis of multiple inhibitors known to be noncompetitive in nature was conducted holding the concentration of the first inhibitory peptide constant and varying the concentration of a second inhibitory peptide. The analysis for mutual exclusivity of the inhibitory peptides employed the methods adapted from Segel (12). […] Regression lines which intersect with one another indicate mutual non-exclusivity of one peptide to another, i.e. tested peptides act as regions which are spatially separate from one another.
(§4) Factor VII function results from a two-step mechanism. First, Factor VII must associate with tissue factor in order to form the active macromolecular complex and second, Factor VII activity within the macromolecular complex can be measured by the conversion of substrate to product, e.g. activation of Factor X. The peptides of the present invention were tested for their ability to inhibit Factor X activation by employing the two-stage chromogenic assay described in Example I-A, 3. Inhibition of Factor X activation measured by this assay detects both of the steps stated for Factor VII function. To verify the inhibitory effect of the synthetic peptides, each of the components were titrated. […] Factor X was titrated against the preformed Factor VII-tissue factor complex in the presence of at least 10^4 molar excess of each peptide. Selected peptides were inoubated with tissue factor and Factor X for 30 minutes at […] before the addition of Factor VII. This preincubation time was sufficient for the peptides to reach equilibrium with the target protein (13). […]

Factor VII = biological target: T1, Factor VII (Homo sapiens, UniProt P08709); experiment: Two-stage clotting assay specific for Factor VII function in Factor VII-depleted plasma; assay type: biochemical; conditions: for IC50: Table 2, Factor VII-depleted plasma, tissue factor, read-out: Concentration for 50% Inhibition, VIIa Coagulant Activity
T1 construct: Factor VII/VIIa (6), Factor X (7), and Factor Xa (8) were isolated as previously reported
T1 sequence (P08709 61-466): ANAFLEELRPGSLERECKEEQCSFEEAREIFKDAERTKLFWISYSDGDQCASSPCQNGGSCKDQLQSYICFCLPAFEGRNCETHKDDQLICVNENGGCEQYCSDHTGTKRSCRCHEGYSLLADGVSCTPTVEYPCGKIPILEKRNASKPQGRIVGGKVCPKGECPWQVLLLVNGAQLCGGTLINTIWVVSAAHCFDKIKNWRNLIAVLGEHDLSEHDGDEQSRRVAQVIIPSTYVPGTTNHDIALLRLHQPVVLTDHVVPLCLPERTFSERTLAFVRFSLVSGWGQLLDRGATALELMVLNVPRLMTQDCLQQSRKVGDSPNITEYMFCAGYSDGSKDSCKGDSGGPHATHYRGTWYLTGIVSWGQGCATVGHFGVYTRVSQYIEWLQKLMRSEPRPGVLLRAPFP
Description: 4. Coagulation assays: The effect of the synthetic peptides and antibodies to them on Factor VII coagulation activity was determined using two-stage clotting assays specific for Factor VII function.
Synthetic peptides were individually preincubated with 20 μl each of plasma immunochemically depleted of Factor VII and 0.25% tissue factor at 37 degrees Centigrade in a total volume of 190 μl adjusted with TBS containing 1% BSA and 5 mM CaCl2. At the end of 30 minutes, coagulation was initiated by the addition of 10 μl of Factor VII (1 nM). The time for clot formation was measured using a Fibrometer (BBL, Cockesysville, Md.). Factor VII activity in the presence of varying concentrations of peptide was quantitated by comparing their clotting times to a standard curve constructed from the log of the clot time versus the log of a known amount of Factor VII in the same reaction mixture without added peptide.
as §2, with “To determine the concentration of peptide required to inhibit the rate of Factor X activation by 50% (CI50), peptides at various concentrations or buffer (TBS-BSA) were incubated with their respective complexes.” left out
Based on the results of the chromogenic assays, three peptides, 208-229, 285-305 and 276-390, were selected for further study for their ability to inhibit a coagulation-based assay designed to measure Factor VII activity. […] After Factor VII was added, the time of clot formation was determined and quantitated.

[2] = biological target: T2, Factor VII-tissue factor complex (Homo sapiens, UniProt P08709+P13726); experiment: Rate of Factor X activation, two-stage chromogenic (amidolytic) assay with purified proteins; assay type: biochemical; conditions: for IC50: derivatives of peptide 194-214 (FIG. 4), read-out: Apparent CI50, rate of Factor Xa formation
T2 construct: Factor VII/VIIa (6), Factor X (7), and Factor Xa (8) were isolated as previously reported; Tissue factor was prepared from human brain as described (9); from tissue; host or cells: Tissue factor from human brain (gift of Dr. J. H. Morrissey)
T2 sequence (P13726 33-295, one chain of several): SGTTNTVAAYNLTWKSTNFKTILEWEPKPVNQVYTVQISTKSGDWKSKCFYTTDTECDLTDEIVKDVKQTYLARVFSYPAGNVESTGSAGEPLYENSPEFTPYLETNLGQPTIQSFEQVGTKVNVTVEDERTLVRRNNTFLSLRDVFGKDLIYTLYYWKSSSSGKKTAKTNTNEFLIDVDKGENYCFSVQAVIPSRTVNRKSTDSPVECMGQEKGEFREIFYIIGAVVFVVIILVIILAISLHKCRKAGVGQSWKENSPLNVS
Description: as §1, §2, §3, §4

[3] = Table 4, derivatives of inhibitory peptides, read-out: CI50, concentration of peptide inhibiting the rate of Factor Xa activation by 50%

PRLMTQDCLQQSRKVGDSPNITEYMFC [Peptide 303-329]
Factor Xa Formation (% of Control Rate) [1]: 92 % of Control Rate

GQLLDRGATALELMVLNVPRLGC-NH2 [Peptide 285-305]
Reduction of the rate and extent of Factor X activation ([1]; 9.5 μM peptide, varying Factor X concentration (FIG. 1)): about 50% | Factor Xa Formation (% of Control Rate) [1]: 0 % of Control Rate | Inhibition of the rate of Factor Xa formation relative to control reactions ([1]; 200 μM peptide): completely inhibited | Mixed inhibition, mutual exclusivity of peptides 209-221 and 285-305 ([1]; Dixon plots, 285-305 at 0, 1.5, 3.0 μM (FIG. 6B), lines intersect above abscissa): lack of mutual exclusively | Concentration for 50% inhibition, fold less than that for peptide 44-50, 194-214, 208-229 or 376-390 ([1]; FIG. 2): 15 to 20 fold | Concentration for 50% inhibition, fold less than that seen with peptides 170-178 and 330-340 ([1]; FIG. 2): 75 to 100 fold | IC50 ([1]; Table 2, read-out: Concentration for 50% Inhibition, Rate of Factor Xa Formation): 3 µM | IC50 [1, 3]: 3 µM | Ki ([1]; from Dixon plots of the rate of Factor Xa formation, three Factor X concentrations, read-out: Ki, peptide inhibition constants for Factor VII activity): 2.8 ± 0.4 µM | Dose-dependent inhibition of the rate of Factor Xa formation / Factor VII activity [1]: significantly inhibit the rate of Factor Xa formation in a dose-dependent manner | Inhibition of clot formation (Factor VII; varying peptide concentrations (FIG. 7)): inhibited clot formation in a dose-dependent manner

RNLIAVLGEHDLSE [Peptide 202-214, RNLIAVLGEHDLSE]
IC50 [1, 3]: 205 µM

VYTRVSQYIEWLQKL-NH2 [Peptide 376-390, VYTRVSQYIEWLQKL]
IC50 (Factor VII): 172 µM

193-203: Factor VII region II synthetic peptide used in mixed inhibition; possibly the 196-203 of Table 4 (YPCGKIPILEK; UniProt P08709 193-203, looked up, fragment) [Peptide 193-203]
Mixed inhibition, mutual exclusivity of peptides 209-221 and 193-203 ([2]; Dixon plots, 193-203 at 0, 14, 28 μM (FIG. 6A), parallel regression lines): mutually exclusive

GEHDLSEHDGDEQ [Peptide 209-221, GEHDLSEHDGDEQ]
IC50 [2]: ~70 µM

R-T-K-L-F-W-I-S-Y-S-D-G-D-Q-C (RTKLFWISYSDGDQC) [Peptide 36-50]
Dose-dependent inhibition of the rate of Factor Xa formation / Factor VII activity [1]: significantly inhibit the rate of Factor Xa formation in a dose-dependent manner

LGEHDLSEHDGDEQSRRVAQVIGC-NH2 [Peptide 208-229]
IC50 [2]: ~50 µM | IC50 (Factor VII): 225 µM

CFDKIKNWRNLIAVLGEHDLS-NH2 [Peptide 194-214]
IC50 [2]: ~70 µM

GKVCPKGEC [Peptide 156-164]
Factor Xa Formation (% of Control Rate) [1]: 97 % of Control Rate

AVLGEHDLSEHDG [Peptide 206-218, AVLGEHDLSEHDG]
IC50 [2]: ~50 µM
